Data: US11458152B2, “Use of agarobiose or agarooligosaccharide having anticariogenic activity” (Korea University Research and Business Foundation, priority 2016, dated 2022)

How the values were obtained:
Streptococcus mutans [1] = test: Growth of Streptococcus mutans under single carbon source condition (Example 6); format: cell-based, Streptococcus mutans ATCC 25175; details: 10 g/L as single carbon source in minimal medium, cultured 14 hours
Protocol: (§1) A strain used in the present experiment was Streptococcus mutans ATCC 25175. Streptococcus mutans ATCC 25175 was pre-cultured in a brain-heart infusion (BHI) medium for 8 hours, and was washed twice with a 2 mM potassium phosphate buffer, and then main-cultured in a minimal medium prepared with reference to a previously reported document (Fujiwara et al (1978) Arch Oral Biol. 23, 601-602) at 37° C. The minimal medium contains, in a 50 mM Tris-HCl buffer (pH 7.4), 2 g/L of L-glutamic acid, 0.2 g/L of cysteine hydrochloride, 0.9 g/L of L-leucine, 1 g/L of ammonium chloride, 3.5 g/L of potassium hydrogen phosphate, 1.5 g/L of potassium dihydrogen phosphate, 4.2 g/L of sodium hydrogen carbonate, 1.2 g/L of magnesium sulfate heptahydrate, 0.02 g/L of manganese chloride tetrahydrate, 0.02 g/L of iron sulfate heptahydrate, 0.6 g/L of sodium pyruvate, 1 mg/L of riboflavin, 0.5 mg/L of thiamine hydrochloride, 0.1 mg/L of biotin, 1 mg/L of nicotinic acid, 0.1 mg/L of p-aminobenzoic acid, 0.5 mg/L of calcium pantothenate, and 1 mg/L of pyridoxine hydrochloride. To verify an effect of inhibiting the growth of Streptococcus mutans under a single carbon source condition, Streptococcus mutans were cultured in a minimal medium containing each of 10 g/L of agarobiose, agarooligosaccharides, glucose, xylitol, and neoagarobiose and a carbon source-free minimal medium. They were main-cultured using the method of Example 5 for 14 hours, and a degree of the cell growth was measured by measuring the absorbance of a culture solution at a wavelength of 600 nm every two hours.

Streptococcus mutans [2] = test: Acid production of Streptococcus mutans under mixed carbon source condition, extracellular glucose and lactic acid by HPLC (Example 8); format: cell-based, Streptococcus mutans ATCC 25175
Protocol: as §1, with “hydrochloride.” for “hydrochloride. To verify an effect of inhibiting the growth of Streptococcus mutans under a single carbon source condition, Streptococcus mutans were cultured in a minimal medium containing each of 10 g/L of agarobiose, agarooligosaccharides, glucose, xylitol, and neoagarobiose and a carbon source-free minimal medium. They were main-cultured using the method of Example 5 for 14 hours, and a degree of the cell growth was measured by measuring the absorbance of a culture solution at a wavelength of 600 nm every two hours.”
To confirm an effect of agarobiose, agarooligosaccharides, xylitol, or neoagarobiose on acid production of Streptococcus mutans, Streptococcus mutans were cultured, using the method of Example 5, in 200 μl of a minimal medium containing 10 g/L of glucose and 0 g/L, 2.5 g/L, 5 g/L, 10 g/L, or 20 g/L of agarobiose, agarooligosaccharides, or neoagarobiose, or 0 g/L, 5 g/L, 10 g/L, or 20 g/L of xylitol in a 96-well plate. After 14 hours, concentrations of extracellular glucose and produced lactic acid were measured by HPLC. A column used for HPLC analysis was Aminex HPX-87H. 0.01 N of sulfuric acid as a mobile phase was flowed at a rate of 0.5 mL/min and 65° C.

Streptococcus mutans [3] = test: Growth inhibition of Streptococcus mutans under mixed carbon source condition, absorbance at 600 nm (Example 7); format: cell-based, Streptococcus mutans ATCC 25175
Protocol: A strain used in the present experiment was Streptococcus mutans ATCC 25175. Streptococcus mutans ATCC 25175 was pre-cultured in a brain-heart infusion (BHI) medium for 8 hours, and was washed twice with a 2 mM potassium phosphate buffer, and then main-cultured in a minimal medium prepared with reference to a previously reported document (Fujiwara et al (1978) Arch Oral Biol. 23, 601-602) at 37° C. The minimal medium contains, in a 50 mM Tris-HCl buffer (pH 7.4), 2 g/L of L-glutamic acid, 0.2 g/L of cysteine hydrochloride, 0.9 g/L of L-leucine, 1 g/L of ammonium chloride, 3.5 g/L of potassium hydrogen phosphate, 1.5 g/L of potassium dihydrogen phosphate, 4.2 g/L of sodium hydrogen carbonate, 1.2 g/L of magnesium sulfate heptahydrate, 0.02 g/L of manganese chloride tetrahydrate, 0.02 g/L of iron sulfate heptahydrate, 0.6 g/L of sodium pyruvate, 1 mg/L of riboflavin, 0.5 mg/L of thiamine hydrochloride, 0.1 mg/L of biotin, 1 mg/L of nicotinic acid, 0.1 mg/L of p-aminobenzoic acid, 0.5 mg/L of calcium pantothenate, and 1 mg/L of pyridoxine hydrochloride. Streptococcus mutans was cultured, using the method of Example 5, in 200 μl of a minimal medium containing 10 g/L of glucose and agarobiose, agarooligosaccharides, xylitol, or neoagarobiose at various concentrations in a 96-well plate, and growth inhibitory effects thereof were observed by measuring absorbance at a wavelength of 600 nm over time. The treated concentrations of agarobiose, agarooligosaccharides, xylitol, and neoagarobiose were between 0 g/L and 20 g/L.

Streptococcus mutans [4] = details: literature (Trahan L et al); cited from earlier work
[5] = 2.5 g/L in 10 g/L glucose, 14 hours
[6] = 10 g/L in 10 g/L glucose, 14 hours
[7] = 20 g/L in 10 g/L glucose, 14 hours
[8] = mixed carbon source, 10 g/L glucose

Compound: OC[C@H]1O[C@@H](O[C@H]2[C@H]3OC[C@@H]2OC(O)[C@H]3O)[C@H](O)[C@@H](O)[C@H]1O (mixture of isomers) [agarobiose]
- growth of Streptococcus mutans (Streptococcus mutans [1]): no growth
- concentration of consumed glucose (Streptococcus mutans [2]; [5]): 6.78 g/L
- concentration of produced lactic acid (Streptococcus mutans [2]; [5]): 5.65 g/L
- decrease of consumed glucose compared to 0 g/L (Streptococcus mutans [2]; [5]): 19%
- decrease of produced lactic acid compared to 0 g/L (Streptococcus mutans [2]; [5]): 32%
- degree of inhibition of acid production compared with 10 g/L of xylitol (Streptococcus mutans [2]; 5 g/L in 10 g/L glucose): greater
- amount of consumed glucose (Streptococcus mutans [2]; [6]): 4.05 g/L
- amount of produced lactic acid (Streptococcus mutans [2]; [6]): 3.25 g/L
- decrease of consumed glucose compared to 0 g/L (Streptococcus mutans [2]; [6]): 51.5%
- decrease of produced lactic acid compared to 0 g/L (Streptococcus mutans [2]; [6]): 60%
- decrease of consumed glucose compared to 0 g/L (Streptococcus mutans [2]; [7]): 58.76%
- decrease of produced lactic acid compared to 0 g/L (Streptococcus mutans [2]; [7]): 68%
- absorbance value after 14 hours of culture (Streptococcus mutans [3]; 2.5 g/L in 10 g/L glucose): 0.55
- degree of inhibition of growth compared with 10 g/L of xylitol (Streptococcus mutans [3]; 5 g/L in 10 g/L glucose): greater
- effect on inhibiting the growth of Streptococcus mutans compared with xylitol (Streptococcus mutans [3]; same concentration, 10 g/L glucose): greater
- final absorbance value compared with xylitol (Streptococcus mutans [3]; same concentration, after 14 hours of culture, 10 g/L glucose): lower

Compound: OC[C@H]1OC(O)[C@H](O)[C@@H](O[C@@H]2O[C@H]3CO[C@@H]([C@@H]2O)[C@@H]3O)[C@H]1O (stereo partly shown) [neoagarobiose, reference compound]
- growth of Streptococcus mutans (Streptococcus mutans [1]): no growth
- inhibition of acid production of Streptococcus mutans (Streptococcus mutans [2]; [8]): unable to inhibit
- amount of consumed glucose compared to 0 g/L (Streptococcus mutans [2]; up to 20 g/L in 10 g/L glucose): did not exhibit significant differences
- amount of produced lactic acid compared to 0 g/L (Streptococcus mutans [2]; up to 20 g/L in 10 g/L glucose): did not exhibit significant differences
- inhibition of the growth of Streptococcus mutans (Streptococcus mutans [3]; [8]): unable to inhibit
- final absorbance value compared to 0 g/L (Streptococcus mutans [3]; up to 20 g/L in 10 g/L glucose): did not exhibit significant differences
- change in the growth of Streptococcus mutans (Streptococcus mutans [3]; up to 20 g/L, minimal medium containing 10 g/L glucose): no significant change

Compound: OC[C@@H](O)[C@H](O)[C@@H](O)CO [xylitol, reference compound]
- growth of Streptococcus mutans (Streptococcus mutans [1]): no growth
- decrease of produced lactic acid compared to 0 g/L (Streptococcus mutans [2]; 5 g/L in 10 g/L glucose, 14 hours): 30%
- decrease of consumed glucose compared to 0 g/L (Streptococcus mutans [2]; [6]): 23.98%
- decrease of produced lactic acid compared to 0 g/L (Streptococcus mutans [2]; [6]): 35%
- decrease of consumed glucose compared to 0 g/L (Streptococcus mutans [2]; [7]): 36.41%
- decrease of produced lactic acid compared to 0 g/L (Streptococcus mutans [2]; [7]): 35%
- concentration needed to inhibit the growth of Streptococcus mutans (Streptococcus mutans [4]): ≥ 10 g/L
- absorbance value at 600 nm after culturing for 14 hours (Streptococcus mutans [3]; 20 g/L in 10 g/L glucose): 0.595
